From US4555572A, “Pyrazolo[3,4,5-kl]acridine compositions and methods for their production and use” (Warner-Lambert Company, priority 1984, dated 1985)
Where a name gives a salt, the structure may show the parent alone. Read-outs that look alike come from different tables or passages of the source.

What was measured:
Alcaligenes viscolactis [1] = test: in vitro antibacterial/antifungal (ABF) agar-disk diffusion assay; type: cell-based; details: dose .1 mg/ml, read-out: ABF zone diameter A. viscol.
Protocol: (§1) (b) Another test protocol is the in vitro antibacterial/antifungal (ABF) test. Compounds are tested for antimicrobial activity in an agar-disk diffusion assay, a standard microbiological technique for testing antibiotics. After incubation of each culture with a test compound, a zone of inhibition is determined. The zone diameter (mm) of active compounds ranges from a minimum of 14 mm to as high as 60 mm, with a greater diameter reflecting higher activity. For convenience, values are reported for (Alcaligenes viscolactis, Sarcina lutea, Branhamella catarrhalis, Bacillus subtilis, and Streptococcus faecalis.

Branhamella catarrhalis [2] = test: as above; type: cell-based; details: Moraxella catarrhalis; dose .1 mg/ml; read-out: ABF zone diameter B. catarrh.
Protocol: as §1

Streptococcus faecalis = test: as above; type: cell-based; details: Enterococcus faecalis, read-out: ABF zone diameter S. faecalis; for zone of inhibition at 500 µg/mL: dose .5 mg/ml
Protocol: as §1

Bacillus subtilis = test: as above; type: cell-based; details: for zone of inhibition at 100 µg/mL: dose .1 mg/ml
Protocol: as §1

Sarcina lutea = test: as above; type: cell-based; details: Micrococcus luteus, read-out: ABF zone diameter S. lutea
Protocol: as §1

[3] = test system: lymphocytic leukemia P388; test: in vivo lymphocytic leukemia P388 test; design: species or system CD2 F1 mice; details: Mus musculus, P388, ip, 120 h
Summary of the method: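 CD2 F1 mice (6–7 per group) inoculated i.p. with P388 ascitic cells; compound dosed i.p. once daily for 5 consecutive days after inoculation. Survival followed 30 days; efficacy as treated/control survival time ×100 (≥125 criterion); "toxic" if all animals died within 4 days of first dose.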

L1210 cells = test: PDC test, L1210 cell growth; type: cell-based, murine; details: Mus musculus, read-out: PDC ID50
Protocol: (c) Another test protocol is the PDC test. L1210 cells, a murine leukemia cell line, were grown in RPMI 1640 supplemented with 10% fetal bovine serum and genamicin (50 μg/ml). Drug dilutions were prepared in the appropriate solvent and 20 μl of each dilution were added to 24-well Linbro tissue culture plates followed by the addition of 2.0 ml of cell suspension containing 3×10^4 cells per ml. Solvent and medium controls were included in each test. After incubation at 37° C. for three days in 5% CO2 in air, the contents of each well were removed and the cells counted in a ZBI Coulter counter. Per cent growth was calculated relative to the controls and the levels of drug activity were expressed as ID50 in terms of molarity (M).

HCT-8 cells = test: in vitro proliferating human colon adenocarcinoma (HCA) cell screen, HCT-8; type: cell-based
Summary of the method: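 HCT-8 colon adenocarcinoma cells seeded in RPMI 1640 + 10% FCS, grown 48 h, then exposed to compounds for 60-65 h at 37 °C, 5% CO2. Nuclei counted by Coulter counter after lysis; ID50 is the molar concentration giving 50% growth inhibition.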

Escherichia coli = test: in vitro antibacterial (ABMF) microdilution susceptibility test; type: cell-based; details: read-out: ABMF Test M.I.C. E. coli
Summary of the method: (§2)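 Standard microdilution susceptibility in Mueller-Hinton broth: inoculated wells contain test compound at 1000, 333, 111, 37, 12, 4, 1.4 and 0.46 μg/mL.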

Alcaligenes viscolactis [4] = test: as above; type: cell-based; details: read-out: ABMF Test M.I.C. A. visc.
Summary of the method: as §2

Bacillus cereus = test: as above; type: cell-based; details: read-out: ABMF Test M.I.C. B. cere.
Summary of the method: as §2

Branhamella catarrhalis [5] = test: as above; type: cell-based; details: Moraxella catarrhalis, read-out: ABMF Test M.I.C. B. cata.
Summary of the method: as §2

Streptococcus pneumoniae = test: as above; type: cell-based; details: read-out: ABMF Test M.I.C. S. pneu.
Summary of the method: as §2

[6] = Bacillus subtilis, read-out: ABF zone diameter B. subtil.
[7] = 25 mg/kg, intraperitoneally once daily for five days, read-out: P388 in vivo T/C × 100
[8] = 50 mg/kg, intraperitoneally once daily for five days, read-out: P388 in vivo T/C × 100
[9] = read-out: P388 in vivo T/C × 100, 6.25 mg/kg, intraperitoneally once daily for five days
[10] = read-out: P388 in vivo T/C × 100, 12.5 mg/kg, intraperitoneally once daily for five days
[11] = HCT-8, read-out: HCA in vitro ID50 avg.
[12] = 6.25 mg/kg, intraperitoneally once daily for five days, read-out: P388 in vivo T/C × 100
[13] = 12.5 mg/kg, intraperitoneally once daily for five days, read-out: P388 in vivo T/C × 100
[14] = read-out: P388 in vivo T/C × 100, 25 mg/kg, intraperitoneally once daily for five days
[15] = HCT-8 cells, 60 to 65 hours, ED50, read-out: HCA ED50 Avg.
[16] = Mueller-Hinton broth, 37° C., 16-24 hours

Row | Compound | zone of inhibition at 100 µg/mL (Branhamella catarrhalis [2]) | zone of inhibition at 500 µg/mL (Streptococcus faecalis) | response vs control in vivo at 25 mg/kg [3, 7] | response vs control in vivo at 50 mg/kg [3, 8] | response vs control in vivo at 6.25 mg/kg [3, 9] | response vs control in vivo at 12.5 mg/kg [3, 10] | IC50 (L1210 cells; L1210, 72 h) | MIC (Escherichia coli) | MIC (Alcaligenes viscolactis [4]) | MIC (Bacillus cereus) | MIC (Branhamella catarrhalis [5]) | MIC (Streptococcus pneumoniae) | response vs control in vivo at 12.5 mg/kg [3, 13] | IC50 (L1210 cells; 72 h, L1210 cells, three days) | IC50 (HCT-8 cells; [15]) | MIC (Escherichia coli; [16]) | MIC (Alcaligenes viscolactis [4]; [16]) | MIC (Bacillus cereus; [16]) | MIC (Branhamella catarrhalis [5]; [16]) | MIC (Streptococcus pneumoniae; [16]) | further results
1 | CN1c2ccccc2-c2nn(CCNCCO)c3ccc([N+](=O)[O-])c1c23 [Example 4, 2-[[2-[6-Methyl-5-nitropyrazolo[3,4,5-kl-acridin-2-(6H)-yl]ethyl]amino]ethanol, methanesulfonate] | 16 mm | 18 mm | 120% | 180% | – | – | – | – | – | – | – | – | – | – | – | – | – | – | – | – | zone of inhibition at 100 µg/mL (Alcaligenes viscolactis [1]): 19 mm; zone of inhibition at 100 µg/mL (Bacillus subtilis; [6]): 20 mm; zone of inhibition at 500 µg/mL (Sarcina lutea; dose .5 mg/ml): 19 mm
2 | COc1ccc2c(c1)-c1nn(CCN(C)C)c3c([N+](=O)[O-])cc([N+](=O)[O-])c(c13)N2 [Example 54, 9-Methoxy-N,N-dimethyl-3,5-dinitropyrazolo[3,4,5-kl]acridine-2(6H)-ethanamine, methanesulfonate (1:1), hydrate] | – | – | – | – | 169% | 236% | 220 nM | 0.46 µg/mL | 0.46 µg/mL | 0.46 µg/mL | 0.46 µg/mL | 0.46 µg/mL | – | – | – | – | – | – | – | – | response vs control in vivo at 1.56 mg/kg ([3]; read-out: P388 in vivo T/C × 100, 1.56 mg/kg, intraperitoneally once daily for five days): 132%; response vs control in vivo at 3.12 mg/kg ([3]; read-out: P388 in vivo T/C × 100, 3.12 mg/kg, intraperitoneally once daily for five days): 137%; IC50 (HCT-8 cells; [11]): 55 nM
3 | COc1ccc2c(c1)-c1nn(CCNCCO)c3ccc([N+](=O)[O-])c(c13)N2 [Example 7, 2-[[2-(9-Methoxy-5-nitropyrazolo[3,4,5-kl]-acridin-2(6H)yl)ethyl]aminoethanol, monohydrochloride] | 14 mm | – | 149% | 163% | – | – | – | – | – | – | – | – | 138% | – | – | – | – | – | – | – | zone of inhibition at 1000 µg/mL (Streptococcus faecalis; dose 1 mg/ml): 14 mm; zone of inhibition at 500 µg/mL (Bacillus subtilis; Bacillus subtilis, dose .5 mg/ml, read-out: ABF zone diameter B. subtil.): 18 mm; zone of inhibition at 1000 µg/mL (Sarcina lutea; dose 1 mg/ml): 14 mm; response vs control in vivo at 6.25 mg/kg [3, 12]: 138%
4 | CCN(CC)CCn1nc2c3c(c([N+](=O)[O-])cc([N+](=O)[O-])c31)Nc1ccc(OC)cc1-2 [Example 50, N,N-Diethyl-9-methoxy-3,5-dinitropyrazolo[3,4,5-kl]acridine-2(6H)-ethanamine, methanesulfonate (1:1), hydrate] | – | – | – | – | 160% | 166% | 400 nM | < 0.46 µg/mL | < 0.46 µg/mL | 4.1 µg/mL | < 0.46 µg/mL | < 0.46 µg/mL | – | – | – | – | – | – | – | – | response vs control in vivo at 25 mg/kg [3, 14]: 169%; response vs control in vivo at 50 mg/kg ([3]; read-out: P388 in vivo T/C × 100, 50 mg/kg, intraperitoneally once daily for five days): 226%; IC50 (HCT-8 cells; [11]): 66 nM
5 | CCN(CC)CCn1nc2ccc([N+](=O)[O-])c3c2c1-c1cc(OC)ccc1N3.CS(=O)(=O)O [Example 9, N,N-Diethyl-9-methoxy-5-nitropyrazolo[3,4,5-kl]acridine-1(6H)-ethanamine, monomethanesulfonate] | 16 mm | 18 mm | 135% | 167% | – | – | – | – | – | – | – | – | 120% | – | – | – | – | – | – | – | ABF zone diameter B. subtil. (Bacillus subtilis; dose not given): 15 mm; zone of inhibition at 100 µg/mL (Sarcina lutea; dose .1 mg/ml): 14 mm
6 | COc1ccc2c(c1)-c1nn(CCCN(C)C)c3ccc([N+](=O)[O-])c(c13)N2 [Example 45, 9-Methoxy-N,N-dimethyl-5-nitropyrazolo[3,4,5-kl]acridine-2(6H)-propanamine,methanesulfonate] | – | – | – | – | 189% | 227% | 420 nM | 12.3 µg/mL | < 0.46 µg/mL | 1.4 µg/mL | 1.4 µg/mL | < 0.46 µg/mL | – | – | – | – | – | – | – | – | response vs control in vivo at 25 mg/kg [3, 14]: 261%; IC50 (HCT-8 cells; HCT-8, read-out: HCA ED50 Avg.): 140 nM
7 | CCOc1ccc2c(c1)-c1nn(CCNCCO)c3ccc([N+](=O)[O-])c(c13)N2 [Example 40, 2-[[2-(9-Ethoxy-5-nitropyrazolo[3,4,5-kl]acridin-2(6H)-yl)ethyl]amino]ethanol, monohydrochloride, hydrate (4:1)] | – | – | 169% | 195% | – | – | – | – | – | – | – | – | 156% | 320 nM | 82 nM | 4.1 µg/mL | < 0.46 µg/mL | < 0.46 µg/mL | 4.1 µg/mL | < 0.46 µg/mL | response vs control in vivo at 6.25 mg/kg [3, 12]: 134%
8 | CCNCCn1nc2c3c(c([N+](=O)[O-])ccc31)Nc1ccc(OC)cc1-2 [Example 36, N-Ethyl-9-methoxy-5-nitropyrazolo[3,4,5-kl]acridine-2(6H)-ethanamine, 1.25 methanesulfonate salt (4:5), hemihydrate] | – | – | 160% | 223% | – | – | – | – | – | – | – | – | 169% | 210 nM | 120 nM | 1.4 µg/mL | < 0.46 µg/mL | 1.4 µg/mL | < 0.46 µg/mL | < 0.46 µg/mL | –
9 | CCN(CC)CCn1nc2c3c(c([N+](=O)[O-])ccc31)N(C)c1ccccc1-2 [Example 2, N,N-Diethyl-6-methyl-5-nitropyrazolo[3,4,5-kl]acridine-2(6H)-ethanamine, methanesulfonate] | 17 mm | 16 mm | 184% | – | – | – | – | – | – | – | – | – | 126% | – | – | – | – | – | – | – | zone of inhibition at 100 µg/mL (Alcaligenes viscolactis [1]): 20 mm; zone of inhibition at 100 µg/mL (Bacillus subtilis; [6]): 18 mm; IC50 (HCT-8 cells; HCT-8 cells, 60 to 65 hours, molar concentration for 50% inhibition of growth, read-out: HCA in vitro ID50 avg.): 1000 nM
10 | CCN(CC)CCn1nc2c3c(c([N+](=O)[O-])ccc31)Nc1ccc(N(C)C)cc1-2.CS(=O)(=O)O.CS(=O)(=O)O [Example 33, 9-(Dimethylamino)-N,N-diethyl-5-nitropyrazolo[3,4,5-kl]acridine-2(6H)-ethanamine, methanesulfonate (1:2)] | – | – | 158% | – | – | – | – | – | – | – | – | – | 127% | 900 nM | 320 nM | 37 µg/mL | 1.4 µg/mL | 37 µg/mL | 12.3 µg/mL | 1.4 µg/mL | –
